In patent publication US20090062122A1, “Cotton Growth Regulator” (FMC Corporation, priority 2006, published 2009):

How the values were obtained:
[1] = system: cotton, variety D&PL 555; experiment: % defoliation of cotton plants, field trial; format: in vivo; details: 20% open boll application, 1 replicate
Protocol: (§1) The trial was performed on cotton, variety D&PL 555. The formulated test compounds were diluted to the appropriate concentrations with water to which a crop oil concentrate (1% to 2% v/v) or a non-ionic surfactant (0.25% v/v) was added. The application of the test composition as a cotton plant growth regulator was performed using pressurized, over-the-top spray equipment consisting of a research scale boom sprayer. Deposit of the test composition was primarily to the top of the cotton plants, minimizing spray deposition to lower branches, leaves and fruit. The finished spray volume was 10 gallons per acre, with sprayer nozzle design, orientation and nozzle pressures chosen to prevent spray drift. Applications were made at first sign of cotton boll opening and at 15%, 20% and 40% open bolls.
(§2) The experimental design used randomized plots with 1 to 4 treatment rates of test composition and from 1 to 10 replications depending on the test (sees tables below). The size of each experimental plot was about 15 m^2. Testing was performed in Texas, North Carolina, Mississippi and Georgia.
(§3) Percent desiccation, percent defoliation, percent terminal control and percent open bolls were evaluated at 7 and 14 days after application (DAA) of the test composition. Inspection of cotton plants for insect control of armyworm larvae was performed at 2 DAA and insect damage to bolls was performed at the time of harvest
Defoliation refers to removal of leaves. Percent defoliation rating approximates the proportion of leaves of all sizes shed per 100 leaves present prior to application of the cotton growth regulator compound. An evaluation of the foliage in the untreated check plots was first undertaken. Then the test plots were individually evaluated. The percent of leaves dropped by the plants in the treated plot was determined using observations within the plot and comparisons to foliage in the untreated plot.
(§4) The results, shown as the mean of the indicated number of replications, were compared with results observed in the same trials with an untreated control.

[2] = system: cotton, variety D&PL 555; experiment: % desiccation of cotton leaves, field trial; format: in vivo
Protocol: as §1, §2, §3
Desiccation refers to leaves or portions of leaves dried to debris following tissue death. […] An evaluation of the condition of leaves in the untreated check plots were observed. Then the test plots were individually evaluated. The percent of all leaves completely or partially desiccated by the test application were recorded, based upon live leaves and leaf debris within the test plot relative to foliage present in the untreated plot.
as §4

`CC1=C(C)S(=O)(=O)CCS1(=O)=O` [dimethipin, 2,3-dihydro-5,6-dimethyl-1,4-dithiin-1,1,4,4-tetraoxide] was tested, and the “% Defoliation” value ([1]; 0.23 lb ai/a, 7 DAA) was 28% and the “% Desiccation” value ([2]; 20% open boll application, 0.23 lb ai/a, 7 DAA, 1 replicate) was 40%.
`CCCCCOC(=O)COc1cc(N2C(=O)C3=C(CCCC3)C2=O)c(F)cc1Cl` [flumiclorac-pentyl ester, pentyl [2-chloro-4-fluoro-5-(1,3,4,5,6,7-hexahydro-1,3-dioxo-2H-isoindol-2-yl)phenoxy]acetate] was tested, and the “% Desiccation” value ([2]; first open boll application, 0.027 lb ai/a, 7 DAA, 3 replicates) was 16%, the “% Desiccation” value ([2]; first open boll application, 0.027 lb ai/a, 14 DAA, 3 replicates) was 13% and the “% Desiccation” value ([2]; first open boll application, 0.04 lb ai/a, 7 DAA, 3 replicates) was 19%. The “% Desiccation” value ([2]; first open boll application, 0.04 lb ai/a, 14 DAA, 3 replicates) was 12%.
For `COC(=O)CSc1cc(/N=c2\sc(=O)n3n2CCCC3)c(F)cc1Cl` [fluthiacet-methyl, methyl [[2-chloro-4-fluoro-5-[(tetrahydro-3-oxo-1H,3H-[1,3,4]thiadiazolo[3,4-a]pyridazin-1-ylidine)amino]phenyl]thio]acetate], the “% Desiccation” value ([2]; first open boll application, 0.0018 lb ai/a, 7 DAA, 1 replicate) was 25% and the “% Desiccation” value ([2]; first open boll application, 0.0018 lb ai/a, 14 DAA, 1 replicate) was 17%.
For `CC(C)N.O=C(O)CNCP(=O)(O)O` [glyphosate, N-(phosphonomethyl)glycine isopropylamine salt], the “% Defoliation” value ([1]; 0.5 lb ai/a, 14 DAA) was 7% and the “% Desiccation” value ([2]; 20% open boll application, 0.5 lb ai/a, 14 DAA, 1 replicate) was 67%.
For `C[n+]1ccc(-c2cc[n+](C)cc2)cc1.[Cl-].[Cl-]` [paraquat, 1,1′-dimethyl-4,4′-bipyridinium dichloride], the “% Defoliation” value ([1]; 0.13 lb ai/a, 14 DAA) was 8% and the “% Desiccation” value ([2]; 20% open boll application, 0.13 lb ai/a, 14 DAA, 1 replicate) was 90%.
With `CCOC(=O)COc1cc(-c2nn(C)c(OC(F)F)c2Cl)c(F)cc1Cl` [pyraflufen-ethyl, ethyl 2-chloro-5-[4-chloro-5-(difluoromethoxy)-1-methyl-1H-pyrazol-3-yl]-4-fluorophenoxyacetate] the “% Desiccation” value ([2]; first open boll application, 0.0008 lb ai/a, 7 DAA, 3 replicates) was 13%, the “% Desiccation” value ([2]; first open boll application, 0.0008 lb ai/a, 14 DAA, 3 replicates) was 11% and the “% Desiccation” value ([2]; first open boll application, 0.0016 lb ai/a, 7 DAA, 3 replicates) was 19%. For the same compound, the “% Desiccation” value ([2]; first open boll application, 0.0016 lb ai/a, 14 DAA, 3 replicates) was 13%.
For `CCCCSP(=O)(SCCCC)SCCCC` [tribufos, S,S,S-tributyl phosphorotrithioate], the “% Defoliation” value ([1]; 0.14 lb ai/a, 7 DAA) was 30% and the “% Desiccation” value ([2]; 20% open boll application, 0.14 lb ai/a, 7 DAA, 1 replicate) was 78%.
